Read-outs that look alike come from different tables or passages of the source.
Columns and labels:
[1] = target: T1, human muscarinic M3 receptor (Homo sapiens, UniProt P20309); experiment: Binding to human muscarinic M3 receptors ([3H]N-methylscopolamine)
T1 construct: expressed in transfected cells; host or cells: BSR-M3H
Description: (§1) This assay measures binding of [^3H]N-methylscopolamine to human muscarinic M3 receptors. BSR-M3H cells transfected with a plasmid encoding the human muscarinic M3 receptor were used to prepare membranes in modified Tris-HCl pH 7.4 buffer using standard techniques. A 5 μg aliquot of membrane was incubated with 0.29 nM [^3H]N-methylscopolamine for 60 minutes at 25° C. Non-specific binding was estimated in the presence of 1 μM atropine. Membranes were filtered and washed 3 times and the filters were counted to determine [^3H]N-methylscopolamine specifically bound. See Buckley, N. J., Bonner, T. I., Buckley, C. M. and Brann, M. R. Antagonist binding properties of five cloned muscarinic receptors expressed in CHO-K1 cells. Mol. Pharmacol. 35: 469–476, 1989.
(§2) The human 5-HT2a and 5-HT2b screens were conducted according to Bonhaus, D. W. et al. Br. J. Pharmacol. 1995, 115, 622. The human […], W. A. et al. J. Neurochem. 1997, 69, 1449. The human 5-HT6 screen was conducted according to Monsama, F. J. et al. Mol. Pharmacol. 1993, 43, 320. The assay to human D3 receptors was conducted according to Sokoloff, P. et al. Nature 1990, 347;146. The human dopamine transporter assay was conducted according to Gu, H. et. al. J. Biol. Chem. 1994, 269 (10);7124; and Giros, B. et al. Trends. Pharmacol. Sci. 1993, 14: 43. The human muscarinic M1–M4 screens were conducted according to Buckley N. J. et al. Mol. Pharmacol. 1989, 35:469.
(§3) The human dopamine transporter assay was conducted according to Gu, H. et. al. J. Biol. Chem. 1994, 269 (10);7124 and Giros, B. et al. Trends. Pharmacol. Sci. 1993, 14: 43. The human muscarinic M1–M4 screens were conducted according to Buckley N. J. et al. Mol. Pharmacol. 199, 35:469

[2] = target: T2, human dopamine transporter (Homo sapiens, UniProt Q01959); experiment: Binding to human dopamine transporter ([125I]RTI-55)
T2 construct: expressed in transfected cells; host or cells: CHO-K1
Description: CHO-K1 cell membranes stably transfected with a plasmid encoding the human dopamine transporter were prepared in modified Tris-HCl pH 7.4 buffer using standard techniques. […] Non-specific binding was estimated in the presence of 10 μM nomifensine. […] Trends. […]

[3] = target: T3, human muscarinic M1 receptor (Homo sapiens, UniProt P11229); experiment: Binding to human muscarinic M1 receptors ([3H]N-methylscopolamine)
T3 construct: expressed in transfected cells; host or cells: BSR-M1H
T3 sequence (P11229 1-460): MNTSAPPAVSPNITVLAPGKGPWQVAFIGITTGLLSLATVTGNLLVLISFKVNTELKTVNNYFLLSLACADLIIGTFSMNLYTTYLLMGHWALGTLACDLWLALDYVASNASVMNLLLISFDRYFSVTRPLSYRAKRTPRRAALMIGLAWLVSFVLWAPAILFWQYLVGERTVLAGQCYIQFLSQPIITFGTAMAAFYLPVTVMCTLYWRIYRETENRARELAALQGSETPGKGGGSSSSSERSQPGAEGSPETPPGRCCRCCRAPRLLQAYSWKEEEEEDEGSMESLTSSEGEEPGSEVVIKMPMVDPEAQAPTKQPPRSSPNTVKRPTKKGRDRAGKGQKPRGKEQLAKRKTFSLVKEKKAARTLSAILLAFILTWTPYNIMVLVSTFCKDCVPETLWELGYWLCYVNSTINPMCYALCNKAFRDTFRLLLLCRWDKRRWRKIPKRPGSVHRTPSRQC
Description: as §1, with “muscarinic M1” for “muscarinic M3”, “receptors. BSR-M1H” for “receptors. BSR-M3H”, “A 25” for “A 5”, “469–476, 1989; Luthin, G. R. and Wolfe, B. B. Comparison of [^3H]pirenzepine and [^3H]quinuclidinylbenzilate binding to muscarine cholinergic receptors in rat brain. J. Pharmacol. Exp. Ther. 228: 648–665, 1984; and Watson, M., Yamamura, H. I. and Roeske, W. R. A unique regulatory profile and regional distribution of [^3H]pirenzepine binding in the rat provide evidence for distinct M1 and M2 muscarinic receptor subtypes. Life. Sci. 32: 3001–3011, 1983.” for “469–476, 1989.”
as §2, §3

[4] = target: T4, human dopamine D3 receptor (Homo sapiens, UniProt P35462); experiment: Radioligand binding assay, human dopamine D3 receptors ([3H]Spiperone)
T4 construct: expressed in transfected cells; host or cells: CHO

Wistar rats = experiment: Acute toxicity assessment (maximum tolerated dose) in Wistar rats, i.v.; assay type: in vivo; details: observed 72 hours
Description: An in vivo evaluation was carried out to determine the maximum tolerated dose of certain compounds in Wistar rats (male and female weighing ˜[…]). The compounds were administered i.v. and the animals were then observed for 72 hours. Compounds 37, 93, and 112 were solubilized in 5% dextrose (w/v)/polyethylene glycol 400 (4:1 v/v).

[5] = human, Example 100 table, read-out: IC50 (nM) M3
[6] = human, Example 100 table, read-out: IC50 (nM) DAT
[7] = human, Example 100 table, read-out: IC50 (nM) M1
[8] = human, Example 100 table, read-out: IC50 (nM) D3
[9] = human, Example 101 table, read-out: IC50 (nM) M3
[10] = human, Example 101 table, read-out: IC50 (nM) DAT
[11] = human, Example 101 table, read-out: IC50 (nM) M1
[12] = Example 20 table, read-out: IC50 (nM) Against Human D3 Receptors

T2 sequence (Q01959 whole entry): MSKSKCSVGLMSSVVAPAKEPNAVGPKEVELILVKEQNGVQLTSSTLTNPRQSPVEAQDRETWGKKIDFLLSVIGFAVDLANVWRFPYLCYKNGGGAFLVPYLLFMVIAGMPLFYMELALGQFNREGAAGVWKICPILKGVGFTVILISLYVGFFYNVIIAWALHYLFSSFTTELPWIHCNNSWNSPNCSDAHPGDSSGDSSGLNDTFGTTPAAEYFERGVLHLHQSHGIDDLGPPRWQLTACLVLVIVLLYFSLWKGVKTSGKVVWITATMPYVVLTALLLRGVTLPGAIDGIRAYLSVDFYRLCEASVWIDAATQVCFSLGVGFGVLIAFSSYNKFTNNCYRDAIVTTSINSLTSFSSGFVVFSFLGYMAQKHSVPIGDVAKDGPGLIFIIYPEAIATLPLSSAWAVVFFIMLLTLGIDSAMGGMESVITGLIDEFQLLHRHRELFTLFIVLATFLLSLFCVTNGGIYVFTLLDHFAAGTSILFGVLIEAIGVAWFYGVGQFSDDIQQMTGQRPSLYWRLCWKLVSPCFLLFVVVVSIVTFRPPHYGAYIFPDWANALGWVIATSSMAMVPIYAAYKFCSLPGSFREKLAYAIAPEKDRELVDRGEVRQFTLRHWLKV
T1 sequence (P20309 whole entry): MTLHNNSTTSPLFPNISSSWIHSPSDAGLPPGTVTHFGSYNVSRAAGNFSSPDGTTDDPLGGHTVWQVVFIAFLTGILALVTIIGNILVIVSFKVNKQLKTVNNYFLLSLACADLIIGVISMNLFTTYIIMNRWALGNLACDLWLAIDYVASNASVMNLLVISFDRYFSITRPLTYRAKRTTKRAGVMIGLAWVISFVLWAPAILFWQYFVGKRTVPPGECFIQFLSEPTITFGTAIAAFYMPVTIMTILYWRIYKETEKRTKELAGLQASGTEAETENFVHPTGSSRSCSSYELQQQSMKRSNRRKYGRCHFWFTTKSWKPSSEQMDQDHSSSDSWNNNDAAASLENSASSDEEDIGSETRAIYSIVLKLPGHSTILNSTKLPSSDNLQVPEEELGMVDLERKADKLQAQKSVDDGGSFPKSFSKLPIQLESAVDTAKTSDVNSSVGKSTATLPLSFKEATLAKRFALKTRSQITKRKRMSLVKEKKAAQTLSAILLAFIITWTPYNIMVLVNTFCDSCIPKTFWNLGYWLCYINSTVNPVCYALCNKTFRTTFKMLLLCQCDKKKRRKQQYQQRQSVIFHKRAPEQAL
T4 sequence (P35462 whole entry): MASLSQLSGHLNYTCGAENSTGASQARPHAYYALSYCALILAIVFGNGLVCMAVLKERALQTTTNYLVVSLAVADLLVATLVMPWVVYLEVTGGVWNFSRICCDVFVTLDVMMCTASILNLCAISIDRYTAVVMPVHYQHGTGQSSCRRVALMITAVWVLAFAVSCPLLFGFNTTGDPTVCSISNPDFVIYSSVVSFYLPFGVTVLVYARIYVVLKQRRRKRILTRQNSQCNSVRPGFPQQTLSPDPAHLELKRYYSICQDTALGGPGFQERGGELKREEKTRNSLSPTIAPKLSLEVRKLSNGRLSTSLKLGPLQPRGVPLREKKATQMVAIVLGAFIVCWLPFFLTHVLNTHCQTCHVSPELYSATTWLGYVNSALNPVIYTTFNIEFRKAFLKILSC

| IC50 [1, 5] [nM] | IC50 [2, 6] [nM] | IC50 [3, 7] [nM] | IC50 [4, 8] [nM] | SMILES | IC50 [1, 9] [nM] | IC50 [2, 10] [nM] | IC50 [3, 11] [nM] | IC50 [4, 12] [nM] | further results |
| --- | --- | --- | --- | --- | --- | --- | --- | --- | --- |
| < 1000 | > 1000 | < 1000 | < 100 | CN1CCCC1CCNc1nc(C2(c3ccccc3F)CCCCC2)cs1 (racemic) [Compound 128, {4-[1-(2-fluorophenyl)-cyclohexyl]-thiazol-2-yl}-[2-(1-methyl-pyrrolidin-2-yl)-ethyl]-amine] | – | – | – | – | – |
| < 1000 | > 1000 | > 1000 | < 100 | CN1CCCC1CCNc1nc(C2(c3ccccc3F)CCCCC2)cs1 (single isomer, unassigned) [Compound 130, {4-[1-(2-fluorophenyl)-cyclohexyl]-thiazol-2-yl}-[2-(1-methyl-pyrrolidin-2-yl)-ethyl]-amine] | – | – | – | – | – |
| – | – | – | – | CN1CCN(c2nc(C3(c4csc5ccc(Cl)cc45)CCOCC3)cs2)CC1 [Compound 36] | > 1000 | > 1000 | > 1000 | < 1000 | – |
| – | – | – | – | Clc1ccc(C2(c3csc(N4CCNCC4)n3)CCOCC2)cc1 [Compound 37] | < 500 | > 1000 | < 500 | < 1000 | Tolerability and mortality after 72 h (Wistar rats; 60 mg/kg i.v.): well tolerated by the animals and did not cause any mortality |
| – | – | – | – | CN1CCN(c2nc(C3(c4ccccc4)CCOCC3)cs2)CC1 [Compound 59] | – | – | – | – | IC50 [1]: > 1000 nM; IC50 [2]: > 1000 nM; IC50 [3]: > 1000 nM; IC50 ([4]; IC50 (nM) Against Human D3 Receptors, Example 20 table): > 1000 nM |
| – | – | – | – | CN1CCN(c2nc(C3(c4cccc(Cl)c4)CCOCC3)cs2)CC1 [Compound 63] | > 1000 | > 1000 | > 1000 | < 1000 | – |
| – | – | – | – | CN1CCN(c2nc(C3(c4ccccc4F)CCCCC3)cs2)CC1 [Compound 83] | < 500 | > 1000 | < 500 | < 100 | – |
| – | – | – | – | CN1CCN(c2nc(C3(c4ccccc4F)CCCC3)cs2)CC1 [Compound 93] | < 100 | > 1000 | < 500 | < 1000 | Tolerability and mortality after 72 h (Wistar rats; 60 mg/kg i.v.): well tolerated by the animals and did not cause any mortality |

| SMILES | IC50 [1, 5] [nM] | IC50 [2, 6] [nM] | IC50 [3, 7] [nM] | IC50 [4, 8] [nM] | IC50 [1, 9] [nM] | IC50 [2, 10] [nM] | IC50 [3, 11] [nM] | IC50 [4, 12] [nM] | further results |
| --- | --- | --- | --- | --- | --- | --- | --- | --- | --- |
| CN1CCN(c2nc(C3(c4ccccc4F)CCOCC3)cs2)CC1 [Compound 112] | > 1000 | > 1000 | < 1000 | < 1000 | – | – | – | – | Tolerability and mortality after 72 h (Wistar rats; 30 mg/kg i.v.): well tolerated by the animals and did not cause any mortality |

Reference: patent US7087623B2, “Thiazole and other heterocyclic ligands for mammalian dopamine, muscarinic and serotonin receptors and transporters, and methods of use thereof” (Sepracor Inc., priority 2001, dated 2006)
